The numbers were not newly measured in patent publication US20040053948A1, “Compounds, compositions and methods” (Cytokinetics, Inc., priority 2002, published 2004), which cites them from elsewhere.

As usually defined, the GI50 is the concentration at which growth is held to half of that of the control.

This data set deals with A549 cells. The note with it: data provided by National Cancer Institute, Developmental Therapeutic Program.
Turning to `COc1cccc2c1C(=O)c1c(O)c3c(c(O)c1C2=O)C[C@@](O)(C(=O)CO)C[C@@H]3O[C@H]1C[C@H](N)[C@H](O)[C@H](C)O1` [doxorubicin], the GI50 is 0.063 µM.
Consider `O=c1[nH]cc(F)c(=O)[nH]1` [5-fluorouracil], for which the GI50 is 1 µM.
As to `CC(=O)O[C@H]1C(=O)[C@@]2(C)[C@H]([C@H](OC(=O)c3ccccc3)[C@]3(O)C[C@H](OC(=O)[C@H](O)[C@@H](NC(=O)c4ccccc4)c4ccccc4)C(C)=C1C3(C)C)[C@]1(OC(C)=O)CO[C@@H]1C[C@@H]2O` [paclitaxel], the 50% growth inhibitory concentration (GI50) is 0.004 µM.
Consider `NC(=O)NO` [hydroxyurea], for which the GI50 was 500 µM.
